Measured values reported in patent US11160280B2, “Pesticial compounds” (BASF SE, priority 2017, dated 2021).

Key:
Assay type in all cases: in vivo
[1] = system: yellow fever mosquito (Aedes aegypti); assay: whole plant or invertebrate; conditions: 48 h, larval mortality visually assessed after 2 days, read-out: mortality in comparison with untreated controls
Method: Example B1: Action on Yellow Fever Mosquito (Aedes aegypti)
For evaluating control of yellow fever mosquito (Aedes aegypti) the test unit consisted of 96-well-microtiter plates containing 200 μl of tap water per well and 5-15 freshly hatched A. aegypti larvae.
The active compounds were formulated using a solution containing 75% (v/v) water and 25% (v/v) DMSO. Different concentrations of formulated compounds or mixtures were sprayed onto the insect diet at 2.5 μl, using a custom built micro atomizer, at two replications.
After application, microtiter plates were incubated at 28+1° C., 80+5% RH for 2 days. Larval mortality was then visually assessed.

[2] = system: Orchid thrips (Dichromothrips corbetti); assay: Action on orchid thrips (Dichromothrips corbetti), floral-immersion technique; conditions: adult thrips, mortality 72 hours after treatment, read-out: mortality in comparison with untreated controls
Method: Example B2: Action on Orchid thrips (Dichromothrips corbetti)
Dichromothrips corbetti adults used for bioassay were obtained from a colony maintained continuously under laboratory conditions. For testing purposes, the test compound is diluted in a 1:1 mixture of acetone:water (vol:vol), plus Kinetic® HV at a rate of 0.01% v/v.
Thrips potency of each compound was evaluated by using a floral-immersion technique. All petals of individual, intact orchid flowers were dipped into treatment solution and allowed to dry in Petri dishes. Treated petals were placed into individual re-sealable plastic along with about […]. All test arenas were held under continuous light and a temperature of about 28° C. for duration of the assay. After 3 days, the numbers of live thrips were counted on each petal. The percent mortality was recorded 72 hours after treatment.

[3] = system: tobacco budworm (Heliothis virescens); assay: Action on tobacco budworm (Heliothis virescens), eggs on insect diet in microtiter plates; conditions: 120 h, egg and larval mortality after 5 days, read-out: mortality in comparison with untreated controls
Method: Example B5: Action on Tobacco Budworm (Heliothis virescens)
For evaluating control of tobacco budworm (Heliothis virescens) the test unit consisted of 96-well-microtiter plates containing an insect diet and 15-25 H. virescens eggs.
The compounds were formulated using a solution containing 75% v/v water and 25% v/v DMSO. Different concentrations of formulated compounds were sprayed onto the insect diet at 10 μl, using a custom built micro atomizer, at two replications.
After application, microtiter plates were incubated at about 28±1° C. and about 80±5% relative humidity for 5 days. Egg and larval mortality was then visually assessed.

[4] = system: Silverleaf Whitefly (Bemisia argentifoli) (Adults); assay: Action on silverleaf whitefly (Bemisia argentifoli) adults on sprayed cotton plants; conditions: Bemisia argentifolii, 72 h, mortality 3 days after treatment, read-out: mortality in comparison with untreated controls
Method: Example B4: Action on Silverleaf Whitefly (Bemisia argentifoli) (Adults)
(§1) The active compounds were formulated by a Tecan liquid handler in 100% cyclohexanone as a 10,000 ppm solution supplied in tubes. The 10,000 ppm solution was serially diluted in 100% cyclohexanone to make interim solutions. These served as stock solutions for which final dilutions were made by the Tecan in 50% acetone:50% water (v/v) into 5 or 10 ml glass vials. A nonionic surfactant (Kinetic®) was included in the solution at a volume of 0.01% (v/v). The vials were then inserted into an automated electrostatic sprayer equipped with an atomizing nozzle for application to plants/insects.
Cotton plants at the cotyledon stage (one plant per pot) were sprayed by an automated electrostatic plant sprayer equipped with an atomizing spray nozzle. The plants were dried in the sprayer fume hood and then removed from the sprayer. Each pot was pla-ced into a plastic cup and about 10 to 12 whitefly adults (approximately 3-5 days old) were introduced. The insects were collected using an aspirator and a nontoxic Tygon® tubing connected to a barrier pipette tip. The tip, containing the collected insects, was then gently inserted into the soil containing the treated plant, allowing insects to crawl out of the tip to reach the foliage for feeding. Cups were covered with a reusable screened lid. Test plants were maintained in a growth room at about 25° C. and about 20-40% relative humidity for 3 days, avoiding direct exposure to fluorescent light (24 hour photoperiod) to prevent trapping of heat inside the cup. Mortality was assessed 3 days after treatment, compared to untreated control plants.

[5] = system: Diamond Back Moth (Plutella xylostella); assay: Action on diamond back moth (Plutella xylostella), cabbage leaf dip; conditions: foliar, 3rd instar larvae on dipped cabbage leaves, mortality 72 hours after treatment, read-out: mortality in comparison with untreated controls
Method: Example B6: Action on Diamond Back Moth (Plutella xylostella)
The active compound is dissolved at the desired concentration in a mixture of 1:1 (vol:vol) distilled water:acetone. Surfactant (Kinetic® HV) is added at a rate of 0.01% (vol/vol). The test solution is prepared at the day of use.
Leaves of cabbage were dipped in test solution and air-dried. Treated leaves were placed in petri dishes lined with moist filter paper and inoculated with ten 3rd instar larvae. Mortality was recorded 72 hours after treatment. Feeding damages were also recorded using a scale of 0-100%.

[6] = system: Southern Armyworm (Spodoptera eridania), 2nd Instar Larvae; assay: Action on southern armyworm (Spodoptera eridania), 2nd instar larvae on sprayed lima bean plants; conditions: 96 h, 2nd instar larvae on lima bean plants, 4 days after treatment, read-out: mortality in comparison with untreated controls
Method: Example B7: Action on Southern Armyworm (Spodoptera eridania), 2nd Instar Larvae
as §1, with “into 10” for “into 5”, “or 20” for “or 10”
Lima bean plants (variety Sieva) were grown 2 plants to a pot and selected for treatment at the 1st true leaf stage. Test solutions were sprayed onto the foliage by an automated electrostatic plant sprayer equipped with an atomizing spray nozzle. The plants were dried in the sprayer fume hood and then removed from the sprayer. Each pot was placed into perforated plastic bags with a zip closure. About 10 to 11 armyworm larvae were placed into the bag and the bags zipped closed. Test plants were maintained in a growth room at about 25° C. and about 20-40% relative humidity for 4 days, avoiding direct exposure to fluorescent light (24 hour photoperiod) to prevent trapping of heat inside the bags. Mortality and reduced feeding were assessed 4 days after treatment, compared to untreated control plants.

[7] = system: boll weevil (Anthonomus grandis); assay: Action on boll weevil (Anthonomus grandis), eggs on insect diet in microtiter plates; conditions: 120 h, egg and larval mortality after 5 days, read-out: mortality in comparison with untreated controls
Method: Example B3: Action on Boll Weevil (Anthonomus grandis)
For evaluating control of boll weevil (Anthonomus grandis) the test unit consisted of 96-well-microtiter plates containing an insect diet and 5-10 A. grandis eggs.
The compounds were formulated using a solution containing 75% v/v water and 25% v/v DMSO. Different concentrations of formulated compounds were sprayed onto the insect diet at 5 μl, using a custom built micro atomizer, at two replications.
After application, microtiter plates were incubated at about 25±1° C. and about 75±5% relative humidity for 5 days. Egg and larval mortality was then visually assessed.

CC(C)c1ccccc1N1C(=O)CS/C1=N\N=C\c1ccc2c(C(C)Oc3ccc(OC(F)(F)F)cc3)nn(C)c2c1 (stereo not drawn) [Example C-13, (2Z)-3-(2-isopropylphenyl)-2-[(E)-[1-methyl-3-[1-[4-(trifluoromethoxy)phenoxy]ethyl]indazol-6-yl]methylenehydrazono]thiazolidin-4-one]
≥ 75%: mortality at 800 ppm [1] | mortality at 500 ppm [2] | mortality at 800 ppm [3] | mortality at 300 ppm [4] | mortality at 500 ppm [5] | mortality at 300 ppm [6]

CC(C)c1ccccc1NC(=S)N/N=C/c1ccc2c(COc3ccc(OC(F)(F)F)cc3)nn(C)c2c1 [Example C-3, 1-(2-isopropylphenyl)-3-[(E)-[1-methyl-3-[[4-(trifluoromethoxy)phenoxy]methyl]indazol-6-yl]methyleneamino]thiourea]
≥ 75%: mortality at 800 ppm [7] | mortality at 800 ppm [1] | mortality at 500 ppm [2] | mortality at 800 ppm [3] | mortality at 300 ppm [4] | mortality at 500 ppm [5] | mortality at 300 ppm [6]

CC(C)c1ccccc1/N=C1\SCC(=O)N1/N=C/c1ccc2c(C(C)Oc3ccc(OC(F)(F)F)cc3)nn(C)c2c1 (stereo not drawn) [Example C-14, (2Z)-2-(2-isopropylphenyl)imino-3-[(E)-[1-methyl-3-[1-[4-(trifluoromethoxy)phenoxy]ethyl]indazol-6-yl]methyleneamino]thiazolidin-4-one]
≥ 75%: mortality at 800 ppm [1] | mortality at 500 ppm [2] | mortality at 800 ppm [3] | mortality at 300 ppm [4] | mortality at 500 ppm [5] | mortality at 300 ppm [6]

CC(C)c1ccccc1NC(=S)N/N=C/c1ccc2c(C(C)Oc3ccc(OC(F)(F)F)cc3)nn(C)c2c1 (stereo not drawn) [Example C-12, 1-(2-isopropylphenyl)-3-[(E)-[1-methyl-3-[1-[4-(trifluoromethoxy)phenoxy]ethyl]indazol-6-yl]methyleneamino]thiourea]
≥ 75%: mortality at 800 ppm [7] | mortality at 800 ppm [1] | mortality at 500 ppm [2] | mortality at 800 ppm [3] | mortality at 300 ppm [4] | mortality at 500 ppm [5] | mortality at 300 ppm [6]

CO[C@@H]1[C@@H](OC)[C@H](C)O[C@@H](OC(=O)Nc2ccc3c(C(=O)Nc4ccc(OC(F)(F)F)cc4)nn(C)c3c2)[C@@H]1OC [Example C-6, [(2S,3R,4R,5S,6S)-3,4,5-trimethoxy-6-methyl-tetrahydropyran-2-yl] N-[1-methyl-3-[[4-(trifluoromethoxy)phenyl]carbamoyl]indazol-6-yl]carbamate]
≥ 75%: mortality at 800 ppm [7] | mortality at 800 ppm [1] | mortality at 500 ppm [2] | mortality at 800 ppm [3] | mortality at 300 ppm [4] | mortality at 500 ppm [5] | mortality at 300 ppm [6]
